Measured values from PMC4384643 (Molecular cell, 2015).
Entries after “also recorded” stand apart in the source; their conditions may differ.

Legend:
BCL-2 = conditions: ref Souers et al., 2013; cited from earlier work
BAX = assay: BAX/BCL-2 co-immunoprecipitation in HeLa cells; format: binding; conditions: HeLa cells co-expressing full-length BAX and BCL-2; BCL-2 antibody IP

| Compound | BCL-2 inhibitory activity (BCL-2) | co-immunoprecipitation of BAX with BCL-2 (BAX) |
| --- | --- | --- |
| CC1(C)CCC(CN2CCN(c3ccc(C(=O)NS(=O)(=O)c4ccc(NCC5CCOCC5)c([N+](=O)[O-])c4)c(Oc4cnc5[nH]ccc5c4)c3)CC2)=C(c2ccc(Cl)cc2)C1 [ABT-199] | selective BCL-2 inhibitor |  |
| BCL-2 L23A: L23A point mutant of BCL-2 protein |  | impaired by L23A mutagenesis of the BCL-2 BH4 domain; also recorded: less effective at co-immunoprecipitating BAX relative to wild-type BCL-2 |
